Results: patent US6410575B1, “Viral treatment” (The Procter & Gamble Company, priority 1999, dated 2002)

Tests used:
[1] = tested on: U937KN1272, a protease resistant strain; assay: Long term in vitro study, U937KN1272; assay type: cell-based, HIV
Procedure: (§1) Toxicity quantification involves the XTT-based evaluation. Assays were designed to characterize the long term effects of the compounds on virus production and to characterize the longer term effects of the compounds on virus production from chronically HIV infected cells.
(§2) CEM-SS cells chronically infected with HIV isolate, for example SKI (CEM-SKI) are cultured in RPMI1640 tissue culture medium supplemented with 10% fetal bovine serum and antibiotics. […] CEM-SKI or other infected cells with no added drug are used as the control cells.
(§3) Cells are allowed to grow to a density of approximately 1×10^6 cells/ml and are then passaged at a 1:10 dilution. […] The drug concentration in the flask is then increased two-fold and the cells maintained as above.
(§4) The cell populations contain integrated copies of the HIV genome and constitutively produce HIV at relatively high levels or are latently infected and only produce virus after stimulation with phorbol esters, tumor necrosis factor or IL6(U1 and ACH2). Reductions in virus products were observed when quantifying supernatant reverse transcriptase activity.
Similar results are obtained with U937KN1272, a protease resistant strain, reported below.

HIV-1 cell line, CEMSKI = assay: Long term in vitro study, CEMSKI; assay type: cell-based
Procedure: as §1, §2, §3, §4
The results with CEMSKI cells was reported at weekly intervals.
The CEMSKI cell like is a viral strain of the CEMSS cell line.

Compound: NC(=S)Nc1nsc(-c2ccccc2)n1
- virus production (supernatant reverse transcriptase activity) ([1]; U937KN1272, 7 μg/ml, day 4): 119839
- virus production (supernatant reverse transcriptase activity) ([1]; U937KN1272, 7 μg/ml, day 11): 78089
- virus production (supernatant reverse transcriptase activity) ([1]; U937KN1272, 7 μg/ml, day 18): 74773
- virus production (supernatant reverse transcriptase activity) ([1]; U937KN1272, 7 μg/ml, day 25): 78997
- virus production (supernatant reverse transcriptase activity) ([1]; U937KN1272, 7 μg/ml, day 32): 31156
- virus production (supernatant reverse transcriptase activity) ([1]; U937KN1272, 7 μg/ml, day 39): 41326
- virus production (supernatant reverse transcriptase activity) ([1]; U937KN1272, 7 μg/ml, day 46): 31024
- virus production (supernatant reverse transcriptase activity) ([1]; U937KN1272, 7 μg/ml, day 53): 31209
- virus production (supernatant reverse transcriptase activity) ([1]; U937KN1272, 15 μg/ml, day 4): 103341
- virus production (supernatant reverse transcriptase activity) ([1]; U937KN1272, 15 μg/ml, day 11): 80161
- virus production (supernatant reverse transcriptase activity) ([1]; U937KN1272, 15 μg/ml, day 18): 73939
- virus production (supernatant reverse transcriptase activity) ([1]; U937KN1272, 15 μg/ml, day 25): 74262
- virus production (supernatant reverse transcriptase activity) ([1]; U937KN1272, 15 μg/ml, day 32): 26305
- virus production (supernatant reverse transcriptase activity) ([1]; U937KN1272, 15 μg/ml, day 39): 28635
- virus production (supernatant reverse transcriptase activity) ([1]; U937KN1272, 15 μg/ml, day 46): 18073
- virus production (supernatant reverse transcriptase activity) ([1]; U937KN1272, 15 μg/ml, day 53): 22110
- virus production (supernatant reverse transcriptase activity) ([1]; U937KN1272, 30 μg/ml, day 4): 114070
- virus production (supernatant reverse transcriptase activity) ([1]; U937KN1272, 30 μg/ml, day 11): 89087
- virus production (supernatant reverse transcriptase activity) ([1]; U937KN1272, 30 μg/ml, day 18): 72398
- virus production (supernatant reverse transcriptase activity) ([1]; U937KN1272, 30 μg/ml, day 25): 38006
- virus production (supernatant reverse transcriptase activity) ([1]; U937KN1272, 30 μg/ml, day 32): 6908
- virus production (supernatant reverse transcriptase activity) ([1]; U937KN1272, 30 μg/ml, day 39): 14779
- virus production (supernatant reverse transcriptase activity) ([1]; U937KN1272, 30 μg/ml, day 46): 5663
- virus production (supernatant reverse transcriptase activity) ([1]; U937KN1272, 30 μg/ml, day 53): 10534
- virus production (supernatant reverse transcriptase activity) (HIV-1 cell line, CEMSKI; 7 μg/ml, day 4): 6593
- virus production (supernatant reverse transcriptase activity) (HIV-1 cell line, CEMSKI; 7 μg/ml, day 11): 8676
- virus production (supernatant reverse transcriptase activity) (HIV-1 cell line, CEMSKI; 7 μg/ml, day 18): 10912
- virus production (supernatant reverse transcriptase activity) (HIV-1 cell line, CEMSKI; 7 μg/ml, day 25): 9356
- virus production (supernatant reverse transcriptase activity) (HIV-1 cell line, CEMSKI; 7 μg/ml, day 32): 8803
- virus production (supernatant reverse transcriptase activity) (HIV-1 cell line, CEMSKI; 7 μg/ml, day 39): 6655
- virus production (supernatant reverse transcriptase activity) (HIV-1 cell line, CEMSKI; 7 μg/ml, day 46): 8280
- virus production (supernatant reverse transcriptase activity) (HIV-1 cell line, CEMSKI; 7 μg/ml, day 53): 7549
- virus production (supernatant reverse transcriptase activity) (HIV-1 cell line, CEMSKI; 15 μg/ml, day 4): 6815
- virus production (supernatant reverse transcriptase activity) (HIV-1 cell line, CEMSKI; 15 μg/ml, day 11): 8202
- virus production (supernatant reverse transcriptase activity) (HIV-1 cell line, CEMSKI; 15 μg/ml, day 18): 10389
- virus production (supernatant reverse transcriptase activity) (HIV-1 cell line, CEMSKI; 15 μg/ml, day 25): 7816
- virus production (supernatant reverse transcriptase activity) (HIV-1 cell line, CEMSKI; 15 μg/ml, day 32): 6672
- virus production (supernatant reverse transcriptase activity) (HIV-1 cell line, CEMSKI; 15 μg/ml, day 39): 7087
- virus production (supernatant reverse transcriptase activity) (HIV-1 cell line, CEMSKI; 15 μg/ml, day 46): 6457
- virus production (supernatant reverse transcriptase activity) (HIV-1 cell line, CEMSKI; 15 μg/ml, day 53): 6544
- virus production (supernatant reverse transcriptase activity) (HIV-1 cell line, CEMSKI; 30 μg/ml, day 4): 6626
- virus production (supernatant reverse transcriptase activity) (HIV-1 cell line, CEMSKI; 30 μg/ml, day 11): 6582
- virus production (supernatant reverse transcriptase activity) (HIV-1 cell line, CEMSKI; 30 μg/ml, day 18): 7494
- virus production (supernatant reverse transcriptase activity) (HIV-1 cell line, CEMSKI; 30 μg/ml, day 25): 4421
- virus production (supernatant reverse transcriptase activity) (HIV-1 cell line, CEMSKI; 30 μg/ml, day 32): 4056
- virus production (supernatant reverse transcriptase activity) (HIV-1 cell line, CEMSKI; 30 μg/ml, day 39): 2118
- virus production (supernatant reverse transcriptase activity) (HIV-1 cell line, CEMSKI; 30 μg/ml, day 46): 4117
- virus production (supernatant reverse transcriptase activity) (HIV-1 cell line, CEMSKI; 30 μg/ml, day 53): 4779
- virus production (supernatant reverse transcriptase activity) (HIV-1 cell line, CEMSKI; repeated test, 7 μg/ml, day 4): 6224
- virus production (supernatant reverse transcriptase activity) (HIV-1 cell line, CEMSKI; repeated test, 7 μg/ml, day 11): 6658
- virus production (supernatant reverse transcriptase activity) (HIV-1 cell line, CEMSKI; repeated test, 7 μg/ml, day 18): 7207
- virus production (supernatant reverse transcriptase activity) (HIV-1 cell line, CEMSKI; repeated test, 7 μg/ml, day 25): 5725
- virus production (supernatant reverse transcriptase activity) (HIV-1 cell line, CEMSKI; repeated test, 7 μg/ml, day 32): 3161
- virus production (supernatant reverse transcriptase activity) (HIV-1 cell line, CEMSKI; repeated test, 7 μg/ml, day 39): 9602
- virus production (supernatant reverse transcriptase activity) (HIV-1 cell line, CEMSKI; repeated test, 7 μg/ml, day 46): 13984
- virus production (supernatant reverse transcriptase activity) (HIV-1 cell line, CEMSKI; repeated test, 7 μg/ml, day 53): 11578
- virus production (supernatant reverse transcriptase activity) (HIV-1 cell line, CEMSKI; repeated test, 15 μg/ml, day 4): 5685
- virus production (supernatant reverse transcriptase activity) (HIV-1 cell line, CEMSKI; repeated test, 15 μg/ml, day 11): 5733
- virus production (supernatant reverse transcriptase activity) (HIV-1 cell line, CEMSKI; repeated test, 15 μg/ml, day 18): 6236
- virus production (supernatant reverse transcriptase activity) (HIV-1 cell line, CEMSKI; repeated test, 15 μg/ml, day 25): 3752
- virus production (supernatant reverse transcriptase activity) (HIV-1 cell line, CEMSKI; repeated test, 15 μg/ml, day 32): 2451
- virus production (supernatant reverse transcriptase activity) (HIV-1 cell line, CEMSKI; repeated test, 15 μg/ml, day 39): 5526
- virus production (supernatant reverse transcriptase activity) (HIV-1 cell line, CEMSKI; repeated test, 15 μg/ml, day 46): 12397
- virus production (supernatant reverse transcriptase activity) (HIV-1 cell line, CEMSKI; repeated test, 15 μg/ml, day 53): 9662
- virus production (supernatant reverse transcriptase activity) (HIV-1 cell line, CEMSKI; repeated test, 30 μg/ml, day 4): 4789
- virus production (supernatant reverse transcriptase activity) (HIV-1 cell line, CEMSKI; repeated test, 30 μg/ml, day 11): 5200
- virus production (supernatant reverse transcriptase activity) (HIV-1 cell line, CEMSKI; repeated test, 30 μg/ml, day 18): 4821
- virus production (supernatant reverse transcriptase activity) (HIV-1 cell line, CEMSKI; repeated test, 30 μg/ml, day 25): 2418
- virus production (supernatant reverse transcriptase activity) (HIV-1 cell line, CEMSKI; repeated test, 30 μg/ml, day 32): 1651
- virus production (supernatant reverse transcriptase activity) (HIV-1 cell line, CEMSKI; repeated test, 30 μg/ml, day 39): 3386
- virus production (supernatant reverse transcriptase activity) (HIV-1 cell line, CEMSKI; repeated test, 30 μg/ml, day 46): 9353
- virus production (supernatant reverse transcriptase activity) (HIV-1 cell line, CEMSKI; repeated test, 30 μg/ml, day 53): 6466
